What was measured:
S. epidermidis 125 = experiment: agar diffusion test (Test System II, multi-resistant germs); format: cell-based, Staphylococcus epidermidis
Procedure: (§1) The test substances are deposited in stepped quantities (10 μg, 50 μg, 100 μg) onto active ingredient carriers (sensi-discs). For this purpose, the test substances are dissolved in methanol or A. dest. according to their solubility. Each inoculated plate is fitted with 3 test sheets.
(§2) Test System II (Effect Against Multi-Resistant Germs)
(§3) For this purpose, bacteria is cultivated on Müller-Hinton-Agar II plates.
(§4) With 1-1.5 ml physiological saline solution, a bacteria suspension of McFarland 0.5 (corresponds to a bacteria density of 150×10^6 germs) is produced. Then, with a sterile glass rod, a small drop of bacteria suspension is placed on the Müller-Hinton-Agar plate and coated in three layers (vertical, horizontal, and transverse). Thereafter, the sensi-discs with the novel semi-synthetic test substances are placed on top. The fitted plates are incubated for 18-20 hours at 37° C. After incubation, the diameters of the zones of inhibition are read as a measure for the antimicrobial activity of the novel semi-synthetic test substances.

S. aureus 36881 = experiment: as above; format: cell-based, Staphylococcus aureus; set-up: key: r = resistant (no detectable zone of inhibition)
Procedure: as §1, §2, §3, §4

S. aureus 39105 = experiment: as above; format: cell-based, Staphylococcus aureus; set-up: key: r = resistant (no detectable zone of inhibition)
Procedure: as §1, §2, §3, §4

S. aureus 526 = experiment: as above; format: cell-based, Staphylococcus aureus; set-up: key: r = resistant (no detectable zone of inhibition)
Procedure: as §1, §2, §3, §4

S. aureus 34289 = experiment: as above; format: cell-based, Staphylococcus aureus; set-up: key: r = resistant (no detectable zone of inhibition)
Procedure: as §1, §2, §3, §4

S. aureus 520 = experiment: as above; format: cell-based, Staphylococcus aureus; set-up: key: r = resistant (no detectable zone of inhibition)
Procedure: as §1, §2, §3, §4

S. aureus 33490 = experiment: as above; format: cell-based, Staphylococcus aureus; set-up: key: r = resistant (no detectable zone of inhibition)
Procedure: as §1, §2, §3, §4

[1] = tested on: S. aureus North Germany strain; experiment: as above; format: cell-based, Staphylococcus aureus; set-up: key: r = resistant (no detectable zone of inhibition)
Procedure: as §1, §2, §3, §4

E. faecalis 945 = experiment: as above; format: cell-based, Enterococcus faecalis; set-up: key: r = resistant (no detectable zone of inhibition)
Procedure: as §1, §2, §3, §4

[2] = tested on: Enterococcus faecalis 769; experiment: as above; format: cell-based; set-up: key: r = resistant (no detectable zone of inhibition)
Procedure: as §1, §2, §3, §4

[3] = tested on: Staphylococcus aureus 315; experiment: as above; format: cell-based; set-up: key: r = resistant (no detectable zone of inhibition)
Procedure: as §1, §2, §3, §4

S. aureus ATCC 6538 = experiment: as above; format: cell-based, Staphylococcus aureus
Procedure: as §1, §2, §3, §4

S. aureus 38418 = experiment: as above; format: cell-based, Staphylococcus aureus
Procedure: as §1, §2, §3, §4

[4] = tested on: Bacillus megaterium SBUG 1152; experiment: agar diffusion test (Test System 1, antimicrobial effect); format: cell-based
Procedure: (§5) Test System 1 (Antimicrobial Effect)
(§6) The test germs Escherichia coli SBUG 1135 and Bacillus megaterium SBUG 1152 are drawn overnight (17 hours at 37° C.) in 5 ml nutrient medium II. The incubation is performed in a shaking incubator (INFORS AG CH 4103, Bottmingen, Switzerland) at a shaking frequency of 180 rpm.
(§7) After 17 h incubation time, Escherichia coli has reached a cell density of ca. 2.4×10^10 cells/ml and Bacillus megaterium a cell density of ca. 2.1×10^8 cells/ml.
(§8) The seeding of bacteria in agar is selected so that, dense, but not confluent individual colonies develop after the incubation.
Bacillus megaterium: 0.1 ml of non-diluted overnight culture (ÜN) in 10 ml nutrient agar corresponds to a cell count of 10^6.
(§9) The inoculated nutrient agar is set in sterile Petri dishes and left standing for a few minutes for drying.
as §1
(§10) After a 20-hour incubation time at 37° C., the zones of inhibition around the individual test sheets could be measured. The diameter of the zone of inhibition is specified in mm.

B. subtilis AWD 166 = experiment: agar diffusion test (antimicrobial effect); format: cell-based, Bacillus subtilis
Procedure: as §8, §9, §1, §10

[5] = tested on: Escherichia coli SBUG 1135; experiment: agar diffusion test (Test System 1, antimicrobial effect); format: cell-based; set-up: key: r = resistant (no detectable zone of inhibition)
Procedure: as §5, §6, §7, §8
Escherichia coli: the ÜN is diluted 1:100 with physiological saline solution, of which 0.1 ml is converted into 10 ml nutrient agar. That corresponds to a cell count of 10^6.
as §9, §1, §10

S. epidermidis 1068 = experiment: agar diffusion test (Test System II, multi-resistant germs); format: cell-based, Staphylococcus epidermidis; set-up: key: r = resistant (no detectable zone of inhibition)
Procedure: as §1, §2, §3, §4

S. epidermidis 847 = experiment: as above; format: cell-based, Staphylococcus epidermidis; set-up: key: r = resistant (no detectable zone of inhibition)
Procedure: as §1, §2, §3, §4

S. epidermidis 563 = experiment: as above; format: cell-based, Staphylococcus epidermidis; set-up: key: r = resistant (no detectable zone of inhibition)
Procedure: as §1, §2, §3, §4

S. epidermidis 1071 = experiment: as above; format: cell-based, Staphylococcus epidermidis; set-up: key: r = resistant (no detectable zone of inhibition)
Procedure: as §1, §2, §3, §4

7-[2-(2-ethoxycarbonyl-3,6-dioxocyclohexa-1,4-dienylamino)-2-phenyl-acetylamino]-desacetoxycephalosporanic acid [1h]
Diameter of zone of inhibition (S. epidermidis 125; Quantity n 0.019): 12 mm | Diameter of zone of inhibition (S. epidermidis 125; Quantity n 0.09): 24 mm | Diameter of zone of inhibition (S. epidermidis 125; Quantity n 0.19): 28 mm | Diameter of zone of inhibition (S. aureus 36881; Quantity n 0.019): r | Diameter of zone of inhibition (S. aureus 36881; Quantity n 0.09): r | Diameter of zone of inhibition (S. aureus 36881; Quantity n 0.19): 12 mm | Diameter of zone of inhibition (S. aureus 39105; Quantity n 0.019): r | Diameter of zone of inhibition (S. aureus 39105; Quantity n 0.09): 8 mm | Diameter of zone of inhibition (S. aureus 39105; Quantity n 0.19): 14 mm | Diameter of zone of inhibition (S. aureus 526; Quantity n 0.019): r | Diameter of zone of inhibition (S. aureus 526; Quantity n 0.09): r | Diameter of zone of inhibition (S. aureus 526; Quantity n 0.19): r | Diameter of zone of inhibition (S. aureus 34289; Quantity n [mol] 0.019): r | Diameter of zone of inhibition (S. aureus 34289; Quantity n [mol] 0.09): r | Diameter of zone of inhibition (S. aureus 34289; Quantity n [mol] 0.19): r | Diameter of zone of inhibition (S. aureus 520; Quantity n [mol] 0.019): r | Diameter of zone of inhibition (S. aureus 520; Quantity n [mol] 0.09): r | Diameter of zone of inhibition (S. aureus 520; Quantity n [mol] 0.19): r | Diameter of zone of inhibition (S. aureus 33490; Quantity n [μmol] 0.019): r | Diameter of zone of inhibition (S. aureus 33490; Quantity n [μmol] 0.09): 16 mm | Diameter of zone of inhibition (S. aureus 33490; Quantity n [μmol] 0.19): 20 mm | Diameter of zone of inhibition ([1]; Quantity n 0.019): r | Diameter of zone of inhibition ([1]; Quantity n 0.09): 8 mm | Diameter of zone of inhibition ([1]; Quantity n 0.19): 12 mm | Diameter of zone of inhibition (E. faecalis 945; Quantity n 0.019): r | Diameter of zone of inhibition (E. faecalis 945; Quantity n 0.09): r | Diameter of zone of inhibition (E. faecalis 945; Quantity n 0.19): r | Diameter of zone of inhibition ([2]; Quantity n 0.019): r | Diameter of zone of inhibition ([2]; Quantity n 0.09): r | Diameter of zone of inhibition ([2]; Quantity n 0.19): r | Diameter of zone of inhibition ([3]; Quantity n 0.019): r | Diameter of zone of inhibition ([3]; Quantity n 0.09): r | Diameter of zone of inhibition ([3]; Quantity n 0.19): 10 mm | Diameter of zone of inhibition (S. aureus ATCC 6538; Quantity n 0.019): 20 mm | Diameter of zone of inhibition (S. aureus ATCC 6538; Quantity n 0.09): 28 mm | Diameter of zone of inhibition (S. aureus ATCC 6538; Quantity n 0.19): 30 mm | Diameter of zone of inhibition (S. aureus 38418; Quantity n [mol] 0.019): 12 mm | Diameter of zone of inhibition (S. aureus 38418; Quantity n [mol] 0.09): 22 mm | Diameter of zone of inhibition (S. aureus 38418; Quantity n [mol] 0.19): 28 mm | Diameter of zone of inhibition ([4]; Quantity n 0.019): 18 mm | Diameter of zone of inhibition ([4]; Quantity n 0.09): 28 mm | Diameter of zone of inhibition ([4]; Quantity n 0.19): 32 mm | Diameter of zone of inhibition (B. subtilis AWD 166; Quantity n 0.019): 22 mm | Diameter of zone of inhibition (B. subtilis AWD 166; Quantity n 0.09): 30 mm | Diameter of zone of inhibition (B. subtilis AWD 166; Quantity n 0.19): 32 mm | Diameter of zone of inhibition ([5]; Quantity n 0.019): r | Diameter of zone of inhibition ([5]; Quantity n 0.09): 14 mm | Diameter of zone of inhibition ([5]; Quantity n 0.19): 18 mm | Diameter of zone of inhibition (S. epidermidis 1068; Quantity n 0.019): r | Diameter of zone of inhibition (S. epidermidis 1068; Quantity n 0.09): 10 mm | Diameter of zone of inhibition (S. epidermidis 1068; Quantity n 0.19): 16 mm | Diameter of zone of inhibition (S. epidermidis 847; Quantity n [mol] 0.019): r | Diameter of zone of inhibition (S. epidermidis 847; Quantity n [mol] 0.09): 12 mm | Diameter of zone of inhibition (S. epidermidis 847; Quantity n [mol] 0.19): 18 mm | Diameter of zone of inhibition (S. epidermidis 563; Quantity n 0.019): r | Diameter of zone of inhibition (S. epidermidis 563; Quantity n 0.09): 14 mm | Diameter of zone of inhibition (S. epidermidis 563; Quantity n 0.19): 18 mm | Diameter of zone of inhibition (S. epidermidis 1071; Quantity n 0.019): r | Diameter of zone of inhibition (S. epidermidis 1071; Quantity n 0.09): 14 mm | Diameter of zone of inhibition (S. epidermidis 1071; Quantity n 0.19): 20 mm

From patent publication US20110040086A1, “Novel Beta-Lactam Antibiotics, Methods for Their Production, and Their Use” (DRITTE PATENTPORTFOLIO BETEILIGUNGSGESELLSCHAFT MB, priority 2007, published 2011)
